Measurements from ChEMBL document CHEMBL2429781, “Cell-based medicinal chemistry optimization of high-throughput screening (HTS) hits for orally active antimalarials. Part 1: challenges in potency and absorption, distribution, metabolism, excretion/pharmacokinetics (ADME/PK)” (J Med Chem, 2013).
Values after ≈ are worked out from the molar mass of the structure shown.

Assays:
Plasmodium falciparum [1] = assay: Antiplasmodial activity against Plasmodium falciparum after 72 hrs by MSF assay; type: functional, organism-based
Plasmodium falciparum [2] = assay: Antiplasmodial activity against atovaquone-resistant Plasmodium falciparum Tm90.C2B after 72 hrs by MSF assay; type: functional, organism-based
Plasmodium falciparum [3] = assay: Antiplasmodial activity against Plasmodium falciparum W2; type: functional, organism-based
[4] = target: Voltage-gated inwardly rectifying potassium channel KCNH2 (Homo sapiens, UniProt Q12809); assay: Binding affinity to human ERG channel
Chain of Voltage-gated inwardly rectifying potassium channel KCNH2 (Q12809 whole entry): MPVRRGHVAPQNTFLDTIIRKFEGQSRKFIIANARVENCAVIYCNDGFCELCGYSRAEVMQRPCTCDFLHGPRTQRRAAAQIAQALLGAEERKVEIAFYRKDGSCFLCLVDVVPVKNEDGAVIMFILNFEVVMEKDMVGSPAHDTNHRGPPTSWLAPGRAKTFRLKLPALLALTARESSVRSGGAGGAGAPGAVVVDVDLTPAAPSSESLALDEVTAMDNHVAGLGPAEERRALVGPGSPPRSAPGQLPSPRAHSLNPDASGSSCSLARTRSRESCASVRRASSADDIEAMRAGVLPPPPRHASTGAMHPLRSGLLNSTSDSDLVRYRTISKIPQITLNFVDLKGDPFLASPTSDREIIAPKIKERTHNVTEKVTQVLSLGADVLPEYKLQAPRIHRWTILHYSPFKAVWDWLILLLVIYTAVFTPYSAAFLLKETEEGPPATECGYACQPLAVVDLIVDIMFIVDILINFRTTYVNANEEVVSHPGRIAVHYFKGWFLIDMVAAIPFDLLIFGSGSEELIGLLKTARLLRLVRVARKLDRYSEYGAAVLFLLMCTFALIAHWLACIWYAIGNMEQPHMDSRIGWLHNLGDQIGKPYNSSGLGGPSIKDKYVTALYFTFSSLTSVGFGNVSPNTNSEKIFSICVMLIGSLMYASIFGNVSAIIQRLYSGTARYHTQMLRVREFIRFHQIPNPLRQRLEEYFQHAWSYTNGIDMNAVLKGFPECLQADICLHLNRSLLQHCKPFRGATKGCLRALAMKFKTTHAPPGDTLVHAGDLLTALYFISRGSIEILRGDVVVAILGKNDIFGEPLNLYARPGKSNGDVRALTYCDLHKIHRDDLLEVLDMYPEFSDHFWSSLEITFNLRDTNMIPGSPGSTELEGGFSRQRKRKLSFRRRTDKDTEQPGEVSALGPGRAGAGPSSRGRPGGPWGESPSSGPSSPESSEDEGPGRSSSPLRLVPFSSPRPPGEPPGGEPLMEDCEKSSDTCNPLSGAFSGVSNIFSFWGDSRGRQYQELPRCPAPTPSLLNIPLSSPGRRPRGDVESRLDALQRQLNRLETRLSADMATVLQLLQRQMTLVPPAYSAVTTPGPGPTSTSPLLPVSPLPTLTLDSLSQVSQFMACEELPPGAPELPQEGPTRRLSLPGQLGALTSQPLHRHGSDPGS

[5] = Solubility of the compound at pH 6.8; type: physicochemical; settings: buffer
Plasmodium falciparum [6] = assay: Antimicrobial activity against clinical isolates of Plasmodium falciparum; type: functional, organism-based
[7] = Aqueous solubility of the compound; type: physicochemical; settings: aqueous (not further specified)
[8] = Half life in mouse liver microsomes; type: ADME, Microsome
Plasmodium falciparum [9] = assay: Antiplasmodial activity against Plasmodium falciparum W2/Indochina after 72 hrs by SYBR Green method; type: functional
[10] = Half life in mouse hepatic microsomes by LC/MS analysis in presence of NADPH; type: ADME; settings: liver microsomes
Plasmodium falciparum [11] = assay: Antiplasmodial activity against blood stage form of Plasmodium falciparum NF54; type: functional, organism-based
Plasmodium falciparum [12] = assay: Antiplasmodial activity against wild type Plasmodium falciparum 3D7; type: functional, organism-based
Plasmodium falciparum [13] = assay: Antiplasmodial activity against chloroquine-sensitive Plasmodium falciparum 3D7; type: functional, organism-based
Plasmodium = assay: Antimicrobial activity against Plasmodium; type: functional
Plasmodium berghei = assay: Antiplasmodial activity against Plasmodium berghei infected po dosed CD-1 mouse model administered qd measured on day 4; type: functional; settings: 96 h
Plasmodium falciparum [14] = assay: Antiplasmodial activity against blood stage Plasmodium falciparum 3D7 by SYBR Green method; type: functional, organism-based
[15] = Elimination half life in CD-1 mouse at 5 mg/kg, po; type: ADME, organism-based; design: dose 5 mg/kg, route oral; settings: in vivo, read-out: beta t1/2 (converted)

With `COc1ccc2c(=O)c(CCCCCC(F)(F)F)c(C)[nH]c2c1` the EC50 (Plasmodium falciparum [1]) was 30 nM and the EC50 (Plasmodium falciparum [2]) was 66 nM.

For `CC1(C)c2nc(-c3ccc(F)cc3)c(Nc3ccc(Cl)cc3)n2CCN1C(=O)CN`, the EC50 (Plasmodium falciparum [3]) was 6 nM and the IC50 [4] was 7200 nM.

In the case of `COc1cc2[nH]c(C)c(-c3ccc(Oc4ccc(OC(F)(F)F)cc4)cc3)c(=O)c2cc1Cl`, the solubility [5] is reported as < 1 µM and the EC50 (Plasmodium falciparum [6]) is reported as 1 nM.

In the case of `O=c1c2c([nH]c3ccc(-c4ccc(C(F)(F)F)cc4)cc13)CCSC2`, the solubility [7] is reported as 2 µM (≈ 0.723 µg/mL), the half-life [8] is reported as > 3 h and the Activity (Plasmodium falciparum [9]) is reported as 30 nM.

In the case of `CCCCCCCc1c(C)[nH]c2cc(F)cc(F)c2c1=O`, the EC50 (Plasmodium falciparum [1]) is reported as 0.1 nM, the half-life [10] is reported as 0.245 h and the EC50 (Plasmodium falciparum [2]) is reported as 80 nM.

Compound `C[C@H]1Cc2c([nH]c3cc(Cl)c(F)cc23)[C@@]2(N1)C(=O)Nc1ccc(Cl)cc12` [CIPARGAMIN] has an EC50 (Plasmodium falciparum [11]) of 1 nM.

Compound `CCOC(=O)c1c(C)[nH]c2cc(Cc3ccc(OC(F)(F)F)cc3)ccc2c1=O` has an EC50 (Plasmodium falciparum [12]) of 0.46 nM.

With `FC(F)(F)Oc1ccc(Nc2cc(Nc3nccn3-c3cccc(C(F)(F)F)c3)ncn2)cc1` the EC50 (Plasmodium falciparum [13]) was 420 nM.

Compound `Cc1nc(C)c(Cl)c(O)c1Cl` [CLOPIDOL] has an EC50 (Plasmodium) of 20000 nM.

For `CCOC(=O)c1c(-c2ccc(-c3ccc(OC(F)(F)F)cc3)cn2)[nH]c2ccccc2c1=O`, the ED50 (Plasmodium berghei) was 2 mg/kg, the EC50 (Plasmodium falciparum [14]) was 30 nM and the half-life [15] was 10.6 h.
